Patent US20130315843A1, “COMPOSITION FOR REDUCTION OF TRPA1 AND TRPV1 SENSATIONS” (priority 2012, published 2013)
Values joined by “and” are separate entries in the source; they are usually repeats but may differ in a detail not shown here. Equal values may be shown once. Read-outs that look alike come from different tables or passages of the source. One block for each compound: values may come before it.

Assays:
human TRPA1 = human TRPA1 (Homo sapiens, UniProt O75762); assay: FLIPR intracellular Ca2+ assay, direct (agonist) effect on TRPA1; format: cell-based; design: expressed in transfected cells; conditions: for percent hydrogen peroxide activation of TRPA1 compared to control agonist: control 50 μM AITC
Sequence of human TRPA1 (O75762 whole entry): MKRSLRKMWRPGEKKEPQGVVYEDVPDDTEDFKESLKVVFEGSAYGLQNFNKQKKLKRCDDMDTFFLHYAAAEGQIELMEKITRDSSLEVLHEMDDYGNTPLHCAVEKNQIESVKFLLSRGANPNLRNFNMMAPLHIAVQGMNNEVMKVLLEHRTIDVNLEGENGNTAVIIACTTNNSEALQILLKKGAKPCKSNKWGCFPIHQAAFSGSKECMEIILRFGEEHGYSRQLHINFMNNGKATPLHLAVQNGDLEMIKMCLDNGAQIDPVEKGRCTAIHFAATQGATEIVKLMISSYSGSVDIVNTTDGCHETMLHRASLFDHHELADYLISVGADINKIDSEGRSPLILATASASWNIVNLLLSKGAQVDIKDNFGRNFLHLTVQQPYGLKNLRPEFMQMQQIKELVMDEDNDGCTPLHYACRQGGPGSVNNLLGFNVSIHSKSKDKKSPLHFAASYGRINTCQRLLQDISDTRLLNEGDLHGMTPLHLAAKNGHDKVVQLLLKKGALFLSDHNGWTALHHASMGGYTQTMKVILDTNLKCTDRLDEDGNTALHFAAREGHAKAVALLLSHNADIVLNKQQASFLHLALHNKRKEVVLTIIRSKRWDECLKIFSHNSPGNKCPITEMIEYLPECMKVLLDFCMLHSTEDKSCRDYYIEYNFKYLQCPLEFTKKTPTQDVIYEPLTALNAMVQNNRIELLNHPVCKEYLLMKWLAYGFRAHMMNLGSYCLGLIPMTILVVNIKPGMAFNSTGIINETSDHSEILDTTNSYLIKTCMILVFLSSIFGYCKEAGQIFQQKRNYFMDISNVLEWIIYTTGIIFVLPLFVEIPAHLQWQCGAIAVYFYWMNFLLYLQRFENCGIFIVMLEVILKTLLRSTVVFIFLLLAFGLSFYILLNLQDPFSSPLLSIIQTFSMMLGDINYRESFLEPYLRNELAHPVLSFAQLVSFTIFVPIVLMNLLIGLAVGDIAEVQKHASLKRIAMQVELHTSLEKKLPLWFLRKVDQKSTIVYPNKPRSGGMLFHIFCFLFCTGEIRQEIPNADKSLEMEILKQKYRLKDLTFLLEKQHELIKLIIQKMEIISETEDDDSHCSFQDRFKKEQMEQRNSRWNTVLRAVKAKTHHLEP
Description: After centrifugation, a pellet of cells was formed in the bottom of the tube separating them from the supernatant solution.
(§1) The pelleted cells were re-suspended in 10 ml assay buffer and 90 μl aliquots (˜50,000 cells) per well delivered to a 96-well assay plate containing 10 μl of test compounds (1 mM in assay buffer, final concentration 100 μM) or buffer control and incubated at room temperature for 30 minutes.

human TRPV1 [1] = biological target: T1, human TRPV1 (Homo sapiens, UniProt Q8NER1); conditions: for percent hydrogen peroxide activation of TRPV1 compared to control agonist: control 350 nM capsaicin
T1 sequence (Q8NER1 whole entry): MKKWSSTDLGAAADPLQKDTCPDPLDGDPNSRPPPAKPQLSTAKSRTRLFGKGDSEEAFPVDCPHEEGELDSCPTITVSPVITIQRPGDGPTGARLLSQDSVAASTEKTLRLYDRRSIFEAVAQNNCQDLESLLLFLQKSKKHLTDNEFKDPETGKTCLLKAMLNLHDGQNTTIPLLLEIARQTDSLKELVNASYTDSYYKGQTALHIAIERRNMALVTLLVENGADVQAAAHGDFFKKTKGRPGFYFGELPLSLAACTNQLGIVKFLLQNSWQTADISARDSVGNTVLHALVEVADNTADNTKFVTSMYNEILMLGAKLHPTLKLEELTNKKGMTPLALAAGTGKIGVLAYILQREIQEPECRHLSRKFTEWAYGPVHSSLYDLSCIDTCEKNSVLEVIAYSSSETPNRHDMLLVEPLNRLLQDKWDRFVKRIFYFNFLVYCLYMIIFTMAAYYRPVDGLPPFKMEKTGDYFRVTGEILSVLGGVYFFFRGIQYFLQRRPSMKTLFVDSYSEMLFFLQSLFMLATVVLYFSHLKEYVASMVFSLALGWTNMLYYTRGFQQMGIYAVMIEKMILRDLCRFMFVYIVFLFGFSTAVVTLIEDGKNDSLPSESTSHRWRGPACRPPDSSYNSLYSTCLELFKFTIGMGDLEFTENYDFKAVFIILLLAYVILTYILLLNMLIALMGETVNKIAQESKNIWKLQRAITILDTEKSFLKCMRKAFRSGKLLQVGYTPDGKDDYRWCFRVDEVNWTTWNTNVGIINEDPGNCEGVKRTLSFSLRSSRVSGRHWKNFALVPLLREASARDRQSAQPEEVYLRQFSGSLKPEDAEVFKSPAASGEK
Description: (§2) Cells were detached with addition of 10 ml of PBS (phosphate buffered saline) by hand shaking gently. Cells were transferred to a 50 ml tube and centrifuged at 850 rpm for 3 minutes to remove PBS.
as §1

[2] = concentration where the cooling effect can be clearly recognized; cited from earlier work
human TRPV1 [3] = biological target: T1, human TRPV1; assay: FLIPR Ca2+ assay, reduction of capsaicin activation of TRPV1; format: cell-based; design: expressed in transfected cells; conditions: with compound
Description: as §2
The pelleted cells were re-suspended in 10 ml assay buffer and 90 μl aliquots (˜50,000 cells) per well delivered to a 96-well assay plate containing 10 μl of test compounds ([…]) or buffer control and incubated at room temperature for 30 minutes.

human TRPV1 [4] = biological target: T1, human TRPV1; assay: FLIPR Ca2+ assay, reduction of hydrogen peroxide activation of TRPV1; format: cell-based; design: expressed in transfected cells; conditions: for inhibition at 400 µM: antagonist 400 μM against 500 μM hydrogen peroxide; for Ca++ counts: with compound

- Ca2+ Count, TRPV1 (human TRPV1 [1]; control agonist Capsaicin 350 nM): 16204 Count
SMILES: COc1cc(CNC(=O)CCCC/C=C/C(C)C)ccc1O [Capsaicin]

- Ca++ counts (human TRPV1 [3]; Dose 4000, 350 nM Capsaicin): 10804
- inhibition at 400 µM (human TRPV1 [4]): 63%
- Ca++ counts (human TRPV1 [4]; Dose 4000, 500 uM H2O2): 682
- effect on TRPA1 receptor, in words (agonist / enhancer) (human TRPA1): enhancer of TRPA1
SMILES: CC(C)C(=O)OCc1ccc2c(c1)OCO2 [Piperonyl Isobutyrate]
- reduction of hydrogen peroxide activation of TRPV1, in words (human TRPV1 [4]): reduces hydrogen peroxide activation of TRPV1

- Ca++ counts (human TRPV1 [3]; Dose 1000, 350 nM Capsaicin): 13976
- inhibition at 100 µM (human TRPV1 [4]; antagonist 100 μM against 500 μM hydrogen peroxide): 53%
- Ca++ counts (human TRPV1 [4]; Dose 1000, 500 uM H2O2): 877
- effect on TRPA1 receptor, in words (agonist / enhancer) (human TRPA1): TRPA1 agonists
SMILES: CC(=O)OC1CC2CCC1(C)C2(C)C (single isomer, unassigned; (-)) [(−)-Bornyl Acetate]
- reduction of hydrogen peroxide activation of TRPV1, in words (human TRPV1 [4]): reduce hydrogen peroxide activation of TRPV1

- Ca++ counts (human TRPV1 [3]; Dose 4000, 350 nM Capsaicin): 10922
- inhibition at 400 µM (human TRPV1 [4]): 60%
- Ca++ counts (human TRPV1 [4]; Dose 4000, 500 uM H2O2): 737
- effect on TRPA1 receptor, in words (agonist / enhancer) (human TRPA1): TRPA1 agonists
SMILES: CCC(=O)OCCOc1ccccc1 [Phenoxyethyl Propionate]
- reduction of hydrogen peroxide activation of TRPV1, in words (human TRPV1 [4]): reduce hydrogen peroxide activation of TRPV1

The remaining lines, values behind:

SMILES: OO [H2O2, hydrogen peroxide]
- percent hydrogen peroxide activation of TRPA1 compared to control agonist (human TRPA1; H2O2 1 μM): 1.4%
- percent hydrogen peroxide activation of TRPA1 compared to control agonist (human TRPA1; H2O2 10 μM): 9.6%
- percent hydrogen peroxide activation of TRPA1 compared to control agonist (human TRPA1; H2O2 100 μM): 91.4%
- Average Ca++ Counts (human TRPA1; H2O2 200 μM alone, control of each Set 1-4): 5881.5 Counts and 8721.8 Counts and 10592.2 Counts and 7043.6 Counts
- percent hydrogen peroxide activation of TRPA1 compared to control agonist (human TRPA1; H2O2 200 μM): 111.7%
- percent hydrogen peroxide activation of TRPA1 compared to control agonist (human TRPA1; H2O2 500 μM): 129.1%
- percent hydrogen peroxide activation of TRPA1 compared to control agonist (human TRPA1; H2O2 1 mM): 123.4%
- percent hydrogen peroxide activation of TRPA1 compared to control agonist (human TRPA1; H2O2 10 mM): 101.3%
- percent hydrogen peroxide activation of TRPA1 compared to control agonist (human TRPA1; H2O2 100 mM): 296.7%
- percent hydrogen peroxide activation of TRPV1 compared to control agonist (human TRPV1 [1]; H2O2 1 μM): 1.51%
- percent hydrogen peroxide activation of TRPV1 compared to control agonist (human TRPV1 [1]; H2O2 10 μM): 3.10%
- percent hydrogen peroxide activation of TRPV1 compared to control agonist (human TRPV1 [1]; H2O2 100 μM): 17.45%
- percent hydrogen peroxide activation of TRPV1 compared to control agonist (human TRPV1 [1]; H2O2 200 μM): 21.18%
- percent hydrogen peroxide activation of TRPV1 compared to control agonist (human TRPV1 [1]; H2O2 500 μM): 30.21%
- percent hydrogen peroxide activation of TRPV1 compared to control agonist (human TRPV1 [1]; H2O2 1 mM): 41.13%
- percent hydrogen peroxide activation of TRPV1 compared to control agonist (human TRPV1 [1]; H2O2 10 mM): 62.81%
- percent hydrogen peroxide activation of TRPV1 compared to control agonist (human TRPV1 [1]; H2O2 100 mM): 209.29%

SMILES: CC(C)[C@@H]1CC[C@@H](C)C[C@H]1O [L-menthol]
- cooling threshold [2]: about 800 ppb

SMILES: CC(C)[C@@H]1CC[C@@H](C)C[C@@H]1O [1-neomenthol]
- cooling threshold [2]: about 3,000 ppb

SMILES: CC(C)[C@@H]1CC[C@@H](C)C[C@@H]1O [d-neomenthol]
- cooling threshold [2]: about 25,000 ppb
